What all share (format): cell-based
Experiment [1] relates to IL-17A. As to the kind of experiment: IL-17 release from differentiated primary human T-cells (IL-17A HTRF assay). The settings on record: primary human CD4+ T cells differentiated into Th17 cells, 45-hour incubation, IL-17A in supernatant; read-out: hIL17 IC50. The method in brief: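 Primary human CD4+ T cells (~2×10^5/well) given compound (2–500 or 4–1000 nM, 0.1% DMSO), CD3/CD28-activated and Th17-differentiated (TGF-β, IL-6, IL-23, IL-1β) for 45 h at 37° C. Supernatant IL-17A by HTRF against standard curve, normalized to vehicle; IC50 by variable-slope regression, with parallel CyQuant viability.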
Background: TR-FRET usually uses a lanthanide donor and a delayed reading to cut background.

For experiment [2], the target named is T1, Human RAR-related Orphan Receptor Gamma (RORγ) (Homo sapiens, UniProt P51449).
T1 sequence (P51449 269-508 limits assumed): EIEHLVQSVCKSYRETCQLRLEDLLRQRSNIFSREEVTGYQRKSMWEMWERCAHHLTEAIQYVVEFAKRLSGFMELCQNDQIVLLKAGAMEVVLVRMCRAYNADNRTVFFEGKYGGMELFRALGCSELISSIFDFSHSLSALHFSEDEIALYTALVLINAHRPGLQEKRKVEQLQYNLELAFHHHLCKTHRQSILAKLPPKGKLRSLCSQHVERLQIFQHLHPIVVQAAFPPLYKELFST
The experiment in a line: RORγ assay (GAL4-RORγ hybrid luciferase reporter, Indigo Biosciences). Conditions: inverse-agonist activity, GAL4-RORγ reporter cells, 23 hours. The essentials:
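[…]engineered human reporter cell line expressing GAL4-DBD/RORγ-LBD hybrid with GAL4-UAS luciferase; constitutive activity measured as inverse agonism. Cells treated with compound (7.8-2000 nM) for 23 h at 37 °C; luminescence normalized to DMSO, IC50 by variable-slope fit, with parallel viability readout to flag non-specific inhibition.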
For orientation: A reporter such as luciferase makes a cellular process visible.

Experiment [3] has as its system Nrf2 transcription factor. As to the kind of experiment: AREc32 luciferase reporter assay. The settings on record: Homo sapiens; AREc32 cells, 19 hours; concentration required to increase GST ARE luciferase reporter activity by 2-fold; read-out: NRF2 ARE 2-Fold (EC2×). The essentials:
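AREc32 cells (MCF-7 with firefly luciferase under eight rat GSTA2 ARE copies) treated 19 h with compound (0.4-200 nM or 3.9-2000 nM) in triplicate. Luminescence normalized to DMSO as fold-induction, capped at 50-fold. EC2× = concentration giving 2-fold reporter increase, interpolated from variable-slope fit.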

From US11993574B2, “Pyrazole and imidazole compounds for inhibition of IL-17 and RORgamma” (REATA PHARMACEUTICALS, INC., priority 2018, dated 2024) come the findings set out here.

Bounds are passed on as bounds.

The term IC50 denotes the concentration that gives 50% inhibition. Turning to `CC(C)c1cccc(-c2nc3c(n2-c2cccc(F)c2)CC[C@@H]2[C@@H](C)C(=O)C(C#N)=C[C@@]32C)c1` [T138], the IC50 was 201 nM in experiment [1] and 284 nM in experiment [2]. In addition, the EC (2-fold) in experiment [3] was 0.941 µM.
Turning to `CC(C)c1ccc(-c2nc3c([nH]2)CC[C@@H]2[C@@H](C)C(=O)C(C#N)=C[C@@]32C)cc1` [T173], the IC50 amounted to 119 nM in experiment [1] and 1970 nM in experiment [2]. In experiment [3], the EC (2-fold) was found to be 0.884 µM.
Regarding `CC(C)c1ccc(-c2nc3c(n2-c2cccc(F)c2)CC[C@@H]2[C@@H](C)C(=O)C(C#N)=C[C@@]32C)cc1` [T129], the IC50 in experiment [1] came out at 73 nM; in experiment [2], 214 nM. Moreover, the EC (2-fold) in experiment [3] is 1.29 µM.
On the same counts, the results for `CC(C)c1ccc(-c2nc3c(n2Cc2ccccc2)CC[C@@H]2[C@@H](C)C(=O)C(C#N)=C[C@@]32C)cc1` [T166] are 63 nM, 228 nM and 1.68 µM.
`CC(C)c1ccc(-c2nc3c(n2CCOCc2ccccc2)CC[C@@H]2[C@@H](C)C(=O)C(C#N)=C[C@@]32C)cc1` [T165]: the IC50 in experiment [1] stood at 211 nM; in experiment [2], 471 nM. In experiment [3], the EC (2-fold) is above 2 µM.
`C[C@H]1C(=O)C(C#N)=C[C@@]2(C)c3nc(-c4ccc(-c5ccccc5)cc4)n(-c4cccc(F)c4)c3CC[C@H]12` [T127]: the IC50 in experiment [1] was 62 nM; in experiment [2] it was 267 nM. Moreover, in experiment [3], the EC (2-fold) turned out to be 1.12 µM.
Turning to `C[C@H]1C(=O)C(C#N)=C[C@@]2(C)c3c(c(-c4ccccc4)nn3-c3ccc(-c4cccc(F)c4)cc3)CC[C@H]12` [T40], the IC50 in experiment [1] is 23 nM; in experiment [2], 80 nM. Besides, in experiment [3], the EC (2-fold) is 0.238 µM.
For `C[C@H]1C(=O)C(C#N)=C[C@@]2(C)c3c(c(-c4ccccc4)nn3-c3cccc(-c4ccccc4)c3)CC[C@H]12` [T35], the half-inhibitory concentration (IC50) in experiment [1] came out at 58 nM; in experiment [2], 129 nM. The EC (2-fold) in experiment [3] turned out to be 0.328 µM.
For `CC(C)c1ccc(-c2nc3c(n2Cc2ccccn2)CC[C@@H]2[C@@H](C)C(=O)C(C#N)=C[C@@]32C)cc1` [T170], the figures for the IC50 in experiment [1] and in experiment [2] were 72 nM and 103 nM, respectively. In experiment [3], the EC (2-fold) is 0.602 µM.
As for `C[C@H]1C(=O)C(C#N)=C[C@@]2(C)c3nc(C4CCOCC4)n(-c4cccc(F)c4)c3CC[C@H]12` [T130], the results for the IC50 in experiment [1] and in experiment [2] were 273 nM and 345 nM, respectively. For the same compound, the EC (2-fold) in experiment [3] worked out at 1.78 µM.
`C[C@H]1C(=O)C(C#N)=C[C@@]2(C)c3nc(-c4ccc(-c5ccccc5)cc4)n(-c4cccnc4)c3CC[C@H]12` [T152]: the IC50 in experiment [1] came to 131 nM; in experiment [2], 188 nM. Moreover, in experiment [3], the EC (2-fold) stood at 1.16 µM.
On the same counts, the results for `C[C@H]1C(=O)C(C#N)=C[C@@]2(C)c3c(c(-c4ccccc4)nn3Cc3ccccc3)CC[C@H]12` [T5] are 119 nM, 136 nM and 0.587 µM.
For `Cc1cc(-c2ccc(-n3nc(-c4ccccc4F)c4c3[C@]3(C)C=C(C#N)C(=O)[C@H](C)[C@H]3CC4)cc2)cnn1` [T83], the figures for the IC50 in experiment [1] and in experiment [2] were 20 nM and 33 nM, respectively. Also, the EC (2-fold) in experiment [3] worked out at 0.139 µM.
As for `C[C@H]1C(=O)C(C#N)=C[C@@]2(C)c3c(c(-c4ccncn4)nn3-c3ccc(-c4cncnc4)cc3)CC[C@H]12` [T50], the IC50 was 326 nM in experiment [1] and 115 nM in experiment [2]. Besides, the EC (2-fold) in experiment [3] is 0.977 µM.
For the compound `C[C@H]1C(=O)C(C#N)=C[C@@]2(C)c3nc(-c4ccc(Cl)c(Cl)c4)n(-c4cnn(C)c4)c3CC[C@H]12` [T158], the values for the IC50 in experiment [1] and in experiment [2] were 240 nM and 124 nM, respectively. The EC (2-fold) in experiment [3] was 1.09 µM.
On to `Cc1ccc(-c2nn(-c3ccc(-c4ccccc4)cc3)c3c2CC[C@@H]2[C@@H](C)C(=O)C(C#N)=C[C@@]32C)cc1` [T69], for which the IC50 turned out to be 12 nM in experiment [1] and 142 nM in experiment [2]. For the same compound, in experiment [3], the EC (2-fold) turned out to be 0.38 µM.
`C[C@H]1C(=O)C(C#N)=C[C@@]2(C)c3c(c(-c4ccccn4)nn3-c3ccc(-c4ccccc4)cc3)CC[C@H]12` [T81]: the IC50 came to 30 nM in experiment [1] and 67 nM in experiment [2]. Further, the EC (2-fold) in experiment [3] amounted to 0.243 µM.
On to `C[C@H]1C(=O)C(C#N)=C[C@@]2(C)c3c(c(-c4ccncn4)nn3-c3ccc(-c4cccnc4)cn3)CC[C@H]12` [T57], for which the IC50 is 67 nM in experiment [1] and 96 nM in experiment [2]. For the same compound, the EC (2-fold) in experiment [3] is 0.403 µM.
On the same counts, the results for `C[C@H]1C(=O)C(C#N)=C[C@@]2(C)c3c(c(-c4ccc(F)cc4)nn3-c3ccc(-c4ccnc(CF)c4)cc3)CC[C@H]12` [T181] are 24 nM, 60 nM and 0.25 µM.
On to `CC(C)c1ccc(-c2nc3c(n2C)CC[C@@H]2[C@@H](C)C(=O)C(C#N)=C[C@@]32C)cc1` [T163], for which the IC50 in experiment [1] turned out to be 255 nM; in experiment [2], 152 nM. Besides, the EC (2-fold) in experiment [3] is 1.13 µM.
As for `C[C@H]1C(=O)C(C#N)=C[C@@]2(C)c3c(c(-c4ccncn4)nn3-c3ccc(-c4ccnc(CF)c4)cc3)CC[C@H]12` [T54], the IC50 in experiment [1] worked out at 33 nM; in experiment [2], 52 nM. Further, the EC (2-fold) in experiment [3] is 0.355 µM.
On the same counts, the results for `Cc1ccccc1-n1nc2c(c1-c1ccccc1)CC[C@@H]1[C@@H](C)C(=O)C(C#N)=C[C@@]21C` [T18] are 182 nM, 114 nM and 0.741 µM.
For `Cc1ccccc1-c1ccc(-n2nc(-c3ccccc3)c3c2[C@]2(C)C=C(C#N)C(=O)[C@H](C)[C@H]2CC3)cc1` [T44], the IC50 was 41 nM in experiment [1] and 83 nM in experiment [2]. In addition, the EC (2-fold) in experiment [3] amounted to 0.242 µM.
With `Cc1ccc(-c2ccc(-n3nc(-c4ccccc4)c4c3[C@]3(C)C=C(C#N)C(=O)[C@H](C)[C@H]3CC4)cc2)cc1` [T41], the IC50 in experiment [1] is 25 nM; in experiment [2] it was 83 nM. Also, the EC (2-fold) in experiment [3] was found to be 0.249 µM.
The like results for `C[C@H]1C(=O)C(C#N)=C[C@@]2(C)c3c(c(-c4ccccc4)nn3-c3ccc(Cl)cc3)CC[C@H]12` [T13] were, in that order, 96 nM, 129 nM and 0.274 µM.
For `Cc1cc(-c2ccc(-n3nc(-c4ccncn4)c4c3[C@]3(C)C=C(C#N)C(=O)[C@H](C)[C@H]3CC4)cc2)cnn1` [T176], the IC50 in experiment [1] turned out to be 129 nM; in experiment [2], 120 nM. The EC (2-fold) in experiment [3] was 0.979 µM.
Turning to `CC(C)c1ccc(-c2nc3c(n2Cc2ccncc2)CC[C@@H]2[C@@H](C)C(=O)C(C#N)=C[C@@]32C)cc1` [T171], the IC50 in experiment [1] was 157 nM; in experiment [2], 260 nM. In experiment [3], the EC (2-fold) turned out to be 1.01 µM.
`C[C@H]1C(=O)C(C#N)=C[C@@]2(C)c3c(c(-c4ccncc4)nn3-c3ccc(-c4cncc(F)c4)cc3)CC[C@H]12` [T101]: the IC50 stood at 51 nM in experiment [1] and 54 nM in experiment [2]. Besides, in experiment [3], the EC (2-fold) is 0.353 µM.
The like results for `Cc1cc(-c2ccc(-n3nc(-c4cccnc4)c4c3[C@]3(C)C=C(C#N)C(=O)[C@H](C)[C@H]3CC4)cc2)cnn1` [T102] were, in that order, 56 nM, 90 nM and 0.918 µM.
Take `CC(C)c1ccc(-c2nc3c(n2Cc2ccc(Cl)cc2)CC[C@@H]2[C@@H](C)C(=O)C(C#N)=C[C@@]32C)cc1` [T169]: the IC50 in experiment [1] is 33 nM; in experiment [2], 371 nM. Also, the EC (2-fold) in experiment [3] worked out at 1.01 µM.
`CC(C)c1ccc(-c2nc3c(n2C2CC2)CC[C@@H]2[C@@H](C)C(=O)C(C#N)=C[C@@]32C)cc1` [T161]: the IC50 in experiment [1] turned out to be 113 nM; in experiment [2], 150 nM. For the same compound, in experiment [3], the EC (2-fold) came to 1.02 µM.
The like results for `C[C@H]1C(=O)C(C#N)=C[C@@]2(C)c3nc(-c4cccc(-c5cncc(F)c5)c4)n(-c4cccc(F)c4)c3CC[C@H]12` [T148] were, in that order, 86 nM, 149 nM and 0.566 µM.
In the case of `C[C@H]1C(=O)C(C#N)=C[C@@]2(C)c3c(c(Nc4ccccc4)nn3-c3ccc(-c4ccccc4)cc3)CC[C@H]12` [T100], the IC50 in experiment [1] turned out to be 16 nM; in experiment [2] it was 110 nM. The EC (2-fold) in experiment [3] was found to be 0.319 µM.
On the same counts, the results for `C[C@H]1C(=O)C(C#N)=C[C@@]2(C)c3c(c(-c4cccc(F)c4)nn3-c3ccnc4ccccc34)CC[C@H]12` [T104] are 62 nM, 208 nM and 0.638 µM.
The like results for `C[C@H]1C(=O)C(C#N)=C[C@@]2(C)c3c(c(-c4ccccc4)nn3-c3ccc(-c4ccc(N(C)C)cc4)cc3)CC[C@H]12` [T47] were, in that order, 26 nM, 68 nM and 0.253 µM.
